Consider 21 compounds from US20250281424A1 (New York Blood Center, Inc, priority 2020, published 2025).

This assay has as its target T1, human PF4 (Homo sapiens, UniProt P02776).
T1 construct: PF4 is a 70 amino acid, lysine-rich 7.8 kDa platelet-specific protein; made in house; host or cells: Escherichia coli BL21DE3 pLysS (pT7-7) and/or Drosophila S2 cells
T1 sequence (P02776 32-101): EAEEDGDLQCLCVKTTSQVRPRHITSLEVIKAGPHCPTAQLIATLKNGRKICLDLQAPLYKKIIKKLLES
Kind of assay: Inhibition of PF4 tetramer formation (BS3 cross-linking, SDS-PAGE). The assay is classed as biochemical. The note with it: for inhibition at 1 µM: 1 μM inhibitor; for inhibition at 1 µM / inhibition at 3 µM / inhibition at 5 µM / inhibition at 10 µM: read-out: % inhibition of PF4 tetramer formation at single concentration of inhibitor; for inhibition at 3 µM: 3 μM inhibitor (column A); for inhibition at 5 µM: 5 μM inhibitor; for inhibition at 10 µM: 10 μM inhibitor (column A); for IC50: read-out: IC50 of PF4 tetramer formation inhibition. The essentials: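 Recombinant human wild-type PF4 (E. coli-expressed, heparin-purified), 10 μg/ml in PBS, incubated with compound 15 min at 37° C or 60 min at room temperature, then cross-linked with 0.2 mM BS3 for 30 min at room temperature. Reducing 12% SDS-PAGE; bands quantified as % tetramer, trimer, dimer, monomer versus compound-free control.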

Turning to `CC(=O)OC[C@H]1O[C@@H](OC(C)=O)[C@H](NC(=O)C2C(=O)c3ccc(Oc4ccc5c(c4)C(=O)C(C(=O)N[C@H]4[C@H](OC(C)=O)O[C@H](COC(C)=O)[C@@H](OC(C)=O)[C@@H]4OC(C)=O)C5=O)cc3C2=O)[C@@H](OC(C)=O)[C@@H]1OC(C)=O` (stereo partly drawn) [Example 399, [(2R,3S,4R,5R,6S)-3,4,6-tris(acetyloxy)-5-{5-[(1,3-dioxo-2-{[(2S,3R,4R,5S,6R)-2,4,5-tris(acetyloxy)-6-[(acetyloxy)methyl]oxan-3-yl]carbamoyl}-2,3-dihydro-1H-inden-5-yl)oxy]-1,3-dioxo-2,3-dihydro-1H-indene-2-amido}oxan-2-yl]methyl acetate], the inhibition at 1 µM was 21% and the inhibition at 3 µM was 28%.
Turning to `COC(=O)CCCC(=O)C1C(=O)c2ccc(C(=O)c3ccc4c(c3)C(=O)C(C(=O)CCCC(=O)OC)C4=O)cc2C1=O` (stereo not shown) [Example 225, methyl 5-{5-[2-(5-methoxy-5-oxopentanoyl)-1,3-dioxo-2,3-dihydro-1H-indene-5-carbonyl]-1,3-dioxo-2,3-dihydro-1H-inden-2-yl}-5-oxopentanoate], the inhibition at 5 µM was 87%, the inhibition at 10 µM was 90% and the IC50 worked out at 3.2 µM.
For the compound `O=C(CC1CC1)C1C(=O)c2ccc(S(=O)(=O)c3ccc4c(c3)C(=O)C(C(=O)CC3CC3)C4=O)cc2C1=O` (stereo not shown) [Example 149, 2-(2-cyclopropylacetyl)-5-{[2-(2-cyclopropylacetyl)-1,3-dioxo-2,3-dihydro-1H-inden-5-yl]sulfonyl}-2,3-dihydro-1H-indene-1,3-dione], the inhibition at 5 µM was 64% and the inhibition at 10 µM was 53%.
As for `CN1CCC[C@H]1C(=O)C1C(=O)c2ccc(S(=O)(=O)c3ccc4c(c3)C(=O)C(C(=O)[C@@H]3CCCN3C)C4=O)cc2C1=O` (stereo partly drawn) [Example 167, 2-[(2S)-1-methylpyrrolidine-2-carbonyl]-5-({2-[(2S)-1-methylpyrrolidine-2-carbonyl]-1,3-dioxo-2,3-dihydro-1H-inden-5-yl}sulfonyl)-2,3-dihydro-1H-indene-1,3-dione], the inhibition at 5 µM turned out to be 18% and the inhibition at 10 µM was determined as 36%.
For the compound `O=C(CN1CCCC1=O)C1C(=O)c2ccc(C#Cc3ccc4c(c3)C(=O)C(C(=O)CN3CCCC3=O)C4=O)cc2C1=O` (stereo not shown) [Example 293, 5-(2-{1,3-dioxo-2-[2-(2-oxopyrrolidin-1-yl)acetyl]-2,3-dihydro-1H-inden-5-yl}ethynyl)-2-[2-(2-oxopyrrolidin-1-yl)acetyl]-2,3-dihydro-1H-indene-1,3-dione], the inhibition at 1 µM amounted to 28% and the inhibition at 3 µM is 43%.
In the case of `O=C(NCC1CCCO1)C1C(=O)c2ccc(S(=O)(=O)c3ccc4c(c3)C(=O)C(C(=O)NCC3CCCO3)C4=O)cc2C1=O` (stereo not shown) [Example 89, 5-[(1,3-dioxo-2-{[(oxolan-2-yl)methyl]carbamoyl}-2,3-dihydro-1H-inden-5-yl)sulfonyl]-1,3-dioxo-N-[(oxolan-2-yl)methyl]-2,3-dihydro-1H-indene-2-carboxamide], the inhibition at 5 µM turned out to be 38% and the inhibition at 10 µM worked out at 66%.
For `COCCOCC(=O)C1C(=O)c2ccc(Oc3ccc4c(c3)C(=O)C(C(=O)COCCOC)C4=O)cc2C1=O` (stereo not shown) [Example 396, 2-[2-(2-methoxyethoxy)acetyl]-5-({2-[2-(2-methoxyethoxy)acetyl]-1,3-dioxo-2,3-dihydro-1H-inden-5-yl}oxy)-2,3-dihydro-1H-indene-1,3-dione], the inhibition at 1 µM was 14% and the inhibition at 3 µM is 17%.
For `O=C(NC1CC1)C1C(=O)c2ccc(C#Cc3ccc4c(c3)C(=O)C(C(=O)NC3CC3)C4=O)cc2C1=O` (stereo not shown) [Example 300, N-cyclopropyl-5-{2-[2-(cyclopropylcarbamoyl)-1,3-dioxo-2,3-dihydro-1H-inden-5-yl]ethynyl}-1,3-dioxo-2,3-dihydro-1H-indene-2-carboxamide], in that order: 22% and 32%.
On to `CC(C)CC(=O)C1C(=O)c2ccc(S(=O)(=O)c3ccc4c(c3)C(=O)C(C(=O)CC(C)C)C4=O)cc2C1=O` (stereo not shown) [Example 145, 2-(3-methylbutanoyl)-5-{[2-(3-methylbutanoyl)-1,3-dioxo-2,3-dihydro-1H-inden-5-yl]sulfonyl}-2,3-dihydro-1H-indene-1,3-dione], for which the inhibition at 5 µM stood at 45% and the inhibition at 10 µM came to 55%.
The corresponding values for `C=CCNC(=O)C1C(=O)c2ccc(C(=O)c3ccc4c(c3)C(=O)C(C(=O)NCC=C)C4=O)cc2C1=O` (stereo not shown) [Example 65, 5,5′-carbonylbis(n-allyl-1,3-dioxo-2,3-dihydro-1h-indene-2-carboxamide)] are 50% and 71%.
For `O=C(c1ccc2c(c1)C(=O)C(C(=O)NC1CCOCC1)C2=O)c1ccc2c(c1)C(=O)C(C(=O)NC1CCOCC1)C2=O` (stereo not shown) [Example 72, 5,5′-carbonylbis(1,3-dioxo-n-(tetrahydro-2h-pyran-4-yl)-2,3-dihydro-1h-indene-2-carboxamide)], in that order: 43% and 52%.
Consider `O=C(CC1CCCC1)C1C(=O)c2ccc(S(=O)(=O)c3ccc4c(c3)C(=O)C(C(=O)CC3CCCC3)C4=O)cc2C1=O` (stereo not shown) [Example 142, 2-(2-cyclopentylacetyl)-5-{[2-(2-cyclopentylacetyl)-1,3-dioxo-2,3-dihydro-1H-inden-5-yl]sulfonyl}-2,3-dihydro-1H-indene-1,3-dione], for which the inhibition at 5 µM came to 95%, the inhibition at 10 µM was 94% and the half-inhibitory concentration (IC50) worked out at 18 µM.
Regarding `CC(C)C(=O)NCC(=O)C1C(=O)c2ccc(S(=O)(=O)c3ccc4c(c3)C(=O)C(C(=O)CNC(=O)C(C)C)C4=O)cc2C1=O` (stereo not shown) [Example 191, 2-methyl-N-{2-[5-({2-[2-(2-methylpropanamido)acetyl]-1,3-dioxo-2,3-dihydro-1H-inden-5-yl}sulfonyl)-1,3-dioxo-2,3-dihydro-1H-inden-2-yl]-2-oxoethyl}propanamide], the inhibition at 5 µM came to 74%, the inhibition at 10 µM was 79% and the IC50 was about 3 µM.
Consider `CC(=O)NCCCC(=O)C1C(=O)c2ccc(Oc3ccc4c(c3)C(=O)C(C(=O)CCCNC(C)=O)C4=O)cc2C1=O` (stereo not shown) [Example 265, N-[4-(5-{[2-(4-acetamidobutanoyl)-1,3-dioxo-2,3-dihydro-1H-inden-5-yl]oxy}-1,3-dioxo-2,3-dihydro-1H-inden-2-yl)-4-oxobutyl]acetamide], for which the inhibition at 1 µM was 18% and the inhibition at 3 µM came out at 34%.
Consider `COc1ccc(NC(=O)C2C(=O)c3ccc(S(=O)(=O)c4ccc5c(c4)C(=O)C(C(=O)Nc4ccc(OC)cc4)C5=O)cc3C2=O)cc1` (stereo not shown) [Example 35, 5,5′-sulphonylbis(1,3-dioxo-indan-2-carboxylic acid (4-methoxyphenyl)-amide)], for which the inhibition at 5 µM amounted to 54%, the inhibition at 10 µM stood at 77% and the 50% inhibitory concentration (IC50) is 2.85 µM.
For `C[C@H](NC(=O)C1C(=O)c2ccc(S(=O)(=O)c3ccc4c(c3)C(=O)C(C(=O)N[C@@H](C)C(=O)O)C4=O)cc2C1=O)C(=O)O` (stereo partly drawn) [Example 318, (2S)-2-({5-[(2-{[(1S)-1-carboxyethyl]carbamoyl}-1,3-dioxo-2,3-dihydro-1H-inden-5-yl)sulfonyl]-1,3-dioxo-2,3-dihydro-1H-inden-2-yl}formamido) propanoic acid], the inhibition at 1 µM is 15% and the inhibition at 3 µM came out at 36%.
The corresponding values for `O=C(NC1CCC1)C1C(=O)c2ccc(Oc3ccc4c(c3)C(=O)C(C(=O)NC3CCC3)C4=O)cc2C1=O` (stereo not shown) [Example 389, N-cyclobutyl-5-{[2-(cyclobutylcarbamoyl)-1,3-dioxo-2,3-dihydro-1H-inden-5-yl]oxy}-1,3-dioxo-2,3-dihydro-1H-indene-2-carboxamide] are 31% and 80%.
Consider `CSCCCC(=O)C1C(=O)c2ccc(C(=O)c3ccc4c(c3)C(=O)C(C(=O)CCCSC)C4=O)cc2C1=O` (stereo not shown) [Example 284, 2-[4-(methylsulfanyl)butanoyl]-5-{2-[4-(methylsulfanyl)butanoyl]-1,3-dioxo-2,3-dihydro-1H-indene-5-carbonyl}-2,3-dihydro-1H-indene-1,3-dione], for which the inhibition at 10 µM is 81% and the concentration for half-maximal inhibition (IC50) came to 10 µM.
Consider `CC(C)(C)OC(=O)N1CC[C@H](C(=O)C2C(=O)c3ccc(C(=O)c4ccc5c(c4)C(=O)C(C(=O)[C@H]4CCN(C(=O)OC(C)(C)C)C4)C5=O)cc3C2=O)C1` (stereo partly drawn) [Example 373, tert-butyl (3S)-3-(5-{2-[(3S)-1-[(tert-butoxy)carbonyl]pyrrolidine-3-carbonyl]-1,3-dioxo-2,3-dihydro-1H-indene-5-carbonyl}-1,3-dioxo-2,3-dihydro-1H-indene-2-carbonyl)pyrrolidine-1-carboxylate], for which the inhibition at 1 µM is 5% and the inhibition at 3 µM stood at 3%.
As for `CC(C)CCCC(=O)C1C(=O)c2ccc(C(=O)c3ccc4c(c3)C(=O)C(C(=O)CCCC(C)C)C4=O)cc2C1=O` (stereo not shown) [Example 189, 2-(5-methylhexanoyl)-5-[2-(5-methylhexanoyl)-1,3-dioxo-2,3-dihydro-1H-indene-5-carbonyl]-2,3-dihydro-1H-indene-1,3-dione], the inhibition at 5 µM was 62% and the inhibition at 10 µM amounted to 71%.
For `O=C(c1ccc2c(c1)C(=O)C(C(=O)NCc1ccco1)C2=O)c1ccc2c(c1)C(=O)C(C(=O)NCc1ccco1)C2=O` (stereo not shown) [Example 19, 5,5′-carbonylbis(1,3-dioxo-indan-2-carboxylic acid (furan-2-ylmethyl)-amide)], in that order: 29% and 56%.

In general, IC50 refers to the midpoint of a concentration-inhibition curve.
